Test results reported in patent publication US11767307B2, “Litter for promoting pet's in-litter elimination” (SPECIALITES PET FOOD, priority 2018, dated 2023).

How the values were obtained:
[1] = tested on: cats; settings: 21 commercial cat attractants tested; cited from earlier work
[2] = tested on: cat elimination behavior; experiment: Two-litter-box test of cat elimination behavior (deposits weight in litter); format: in vivo, cats; settings: measured on non-soiled litters the first day of use
Description: (§1) Twenty cats in 5 living rooms (4 cats per room) were involved in the study. The study lasted 4 days and two litter boxes containing two different products, i.e. a control cat litter (Litter 1, non-clumping clay) and an experimental cat litter (Litter 2) sprayed with 0.1% of composition A according to Example 1, were presented to the cats.
Diet was controlled for each test by measuring food intake. The temperature of the rooms was controlled. In each room, an equal proportion of males/females was respected.
as §1, with “study. Two” for “study. The study lasted 4 days and two”, “(Litter 3,” for “(Litter 1,”, “(Litter 4)” for “(Litter 2)”, “composition B” for “composition A”

Structure (SMILES) | preference by cats for urine elimination versus control [1] | in-litter cat elimination promoting (attractant) effect [2]
CC(C)(CCO)SC[C@H](N)C(=O)O [L-Felinine] | significantly preferred | 
CC1(C)OCC(CO)O1 (centres unmarked) [composition A, 2,2-dimethyl-1,3-dioxolane-4-methanol] |  | in-litter cat elimination promoting (or attractant) effect
